Measured values reported in article PMC9024523, “Phenoxyaromatic Acid Analogues as Novel Radiotherapy Sensitizers: Design, Synthesis and Biological Evaluation” (Molecules, 2022).
Values joined by “and” are separate entries in the source; they are usually repeats but may differ in a detail not shown here. Equal values may be shown once. “Also recorded” adds a separate entry of the source. Read-outs that look alike come from different tables or passages of the source.

Legend:
[1] = tested on: luciferase-labeled U87MG implanted into Balb/c nude mice brains; experiment: In vivo radiosensitization on orthotopically transplanted GB; parameters: species or system mouse
Procedure: In order to evaluate in vivo antitumor effects, luciferase-labeled U87MG was implanted into Balb/c nude mice brains. A small animal bioluminescence imaging system was applied to trace the tumor formation and dynamic changes in GB size. Cobalt 60 was used for fractionated-dose whole-brain irradiation therapy (IR). The tumor was irradiated with a total dose of 12 Gy in four fractions of 3 Gy at a dose rate of 0.3 Gy/min. Efaproxiral or 19c was administrated at a dosage of 150 mg/kg by intraperitoneal injection (ip) every four days over a period of sixteen days. IR was conducted 15 min after ip.
Four-week-old female BALB/c nude mice were purchased from Beijing Vital River Laboratory Animal Technology Co., Ltd. Animals were monitored daily by certified veterinary staff and laboratory personnel. All mice used in this study were maintained in a pathogen-free barrier animal facility. The study was in compliance with all relevant ethical regulations regarding animal research. All animal experiments were approved by the Institutional Animal Care and Use Committee at the Beijing Institute of Basic Medical Sciences. The U87-luc cells were processed and resuspended into basal medium at a concentration of 10^7 cells/mL. Next, 8 × 10^5 U87-luc glioma cells were implanted into the right frontal lobes of each nude mouse. Ten days after tumor implantation, tumor-bearing mice were randomly divided into six groups according to the tumor size and subjected to the indicated treatment (n = 6). Administration of drugs (150mg/kg) or vehicle was performed once every 4 days four consecutive times by intraperitoneal injection. All radiation treatments were performed 25 min after the drug or vehicle was given. Tumors on the brains of mice were irradiated at a dosage of 3 Gy four consecutive times using a ^60Co γ irradiator. The dose rate was 0.3 Gy/min. The bodies of the mice were shielded using lead blocks. The tumor progress was tracked by a small animal live bioluminescence imaging system (LB983NC100U, Germany).

U87MG cells = experiment: Cell Titer-Glo cytotoxicity assay, U87MG; assay type: cell-based, human
Procedure: (§1) For further in vivo evaluation of newly synthesized compounds, 19c and 19t were selected as candidates. Hemoglobin allosteric effectors require a relatively high blood concentration to be effective. Cytotoxicity evaluation was conducted out of consideration for medication safety. HEK293 and U87MG cells were used to evaluate the cytotoxicity.
(§2) Luciferase-transfected human glioma cells (U87-luc) and HEK293 cells were kindly provided by Dr. Nie and cultured in Dulbecco’s Modified Eagle Medium (CM10013, MacGene) with 10% fetal bovine serum (1966173C, Gibco) and 1% penicillin-streptomycin in a humidified atmosphere of 5% CO2 at 37 °C.
(§3) Cells were plated in a 96-well plate at a density of 2000 cells/well and then treated with 19c or 19t at gradient concentrations of 10^1, 10^2, 10^3, 10^4, 10^5, 10^6and 10^7 nM. Compounds 19c and 19t were prepared as the sodium salt by adding saturated sodium bicarbonate in the process of stock solution preparation. Cell viability was evaluated on the indicated days after treatment with a Cell Titer-Glo Luminescent Cell Viability Assay kit (G7572, Promega, Madison, WI, USA) according to the manufacturer’s instructions. All data were normalized to those on day 0 and presented as the mean ± standard deviation (SD).

mouse red blood cells [2] = experiment: In vitro red blood cell-based assay (oxygen equilibrium curve, Softron analyzer); details: final effector concentration 2 mM, mean ± SD
From the text: In the first stage of our research, three series of analogues were designed and synthesized to explore refinement of the hydrophobic parts of 19f, 19m, 24a and 24b; hinge areas of 18g, 19b and 19y; and tail regions of 15c, 15d and 16c, respectively. We used the Softron Analyzer to evaluate the effect of these compounds on the half-blood oxygen saturation(P50) value of red blood cells. The most promising phenoxyaromatic acid compound, efaproxiral, was used as a positive control. […] The results reminded us that the modification of the hydrophobic part or linker extension is beneficial to improve an allosteric effect.
Eight-week-old female C57BL6J mice were purchased from Beijing Vital River Laboratory Animal Technology Co., Ltd. A total of 540 μL mouse blood was added into the 1.5 mL centrifuge tube, followed by adding 60 μL 3.8% sodium citrate. The mixture was then centrifuged at 1500 rpm for 10 min, the supernatant was carefully aspirated, and the cells were washed three times with PBS solution. After mixing packed red blood cells with Alsever’s solution in a ratio of 1:1, a blood gas analyzer (RADIOMETER ABL 90) was used to analyze the red blood cell density and hemoglobin concentration.
All of the compounds were prepared as 200 mM stock solutions in DMSO. Oxygen equilibrium measurements were performed with the Softron analyzer (Softron Medical Products, Beijing, China) using mouse red blood cells. The samples were prepared by adding 3 mg hemoglobin equivalent of red blood cells into 3.92 mL loading buffer (100 mM NaCl, 50 mM bis-Tris at pH 7.2 and 25 °C), followed by 20 μL 10% Dimethicone as a defoamer and 20 μL 20% BSA. Afterwards, 40 μL stock solution was added, and the mixture was loaded to the sample cell and fully deoxygenated by blowing into nitrogen at 37 °C for 15 min. Then, the oxygen equilibrium curve was recorded by blowing into oxygen.

[3] = Pharmacokinetic study in rats; assay type: in vivo; details: rat; for AUC(0-inf) / AUC(0-t) / Cmax / Tmax / half-life / MRT inf: male, Sprague-Dawley, plasma; for MRT inf: read-out: MRTInf_obs; for AUC_%Extrap_obs: (AUCinf−AUClast)/AUCinf
Procedure: Based on the potential radiosensitization effects in vivo, we performed an in vivo pharmacokinetic (PK) study to preliminarily evaluate the druggability of 19c at a dosage of 100 mg/kg by intraperitoneal injection (ip) or oral administration (po).
The pharmacokinetic experiments with 19c in rats were performed by Beijing Pharmaron, Inc. All animals were maintained in the pathogen-free barrier animal facility, and the experiments were approved by the Animal Care and Use Committee of the company. The drug solution was formulated into a 10 mg/mL solution with normal saline on the day of administration. After a single dose of 19c (100 mg/kg) by intraperitoneal injection (ip) or oral administration (po) in male Sprague-Dawley rats (n = 3), blood samples were collected 0.25, 0.5, 1, 2, 4, 6, 8 and 24 h post dose and centrifuged at 4000× g for 5 min at 4 °C to obtain plasma. The plasma was diluted 3 times with water. A measure of 2 µL of diluted supernatant was injected into the LC/MS/MS system for quantitative analysis. […] The Phoenix WinNonlin 8.0 software was applied for the calculation of pharmacokinetic parameters.

mouse red blood cells [4] = experiment: In vitro red blood cell-based assay (oxygen equilibrium curve, Softron analyzer)
HEK293 cells = experiment: Cell Titer-Glo cytotoxicity assay, HEK293; assay type: cell-based
Procedure: as §1, §2, §3

With Cc1cc(C)cc(NC(=O)CCc2ccc(OC(C)(C)C(=O)O)cc2)c1 [19c, 2-(4-(3-((3,5-dimethylphenyl)amino)-3-oxopropyl)phenoxy)-2-methylpropanoic acid] the “overall survival time of tumor-bearing mice compared to vehicle control” value ([1]; 150 mg/kg ip combined with IR) was “could improve the overall survival time”, the “radiosensitization effect in vivo (summary statement)” value ([1]; orthotopically transplanted GB in mouse brains) was “exhibited a radiosensitization effect; also recorded: effective GB radiosensitizer” and the “cytotoxicity (summary statement)” value (U87MG cells; U87MG (glioma) cells) was “no cytotoxicity”. The cytotoxicity (U87MG cells; U87MG cells, concentration of 5 mM) was “no cytotoxic effect”, the P50/P50C (mouse red blood cells [2]; P50C = control with 1% DMSO) was 2.04 ± 0.04 and the P50 (mouse red blood cells [2]; 1% DMSO, mouse red blood cells) was 89.16 ± 5.20 mmHg. The “∆P50” value (mouse red blood cells [2]; ∆P50 = P50 − P50C, mouse red blood cells) was 45.50 mmHg and 45.50 ± 1.73 mmHg, the AUC(0-inf) ([3]; ip 100 mg/kg) was 612 µg·h/mL and the AUC(0-t) ([3]; ip 100 mg/kg, saline) was 612 µg·h/mL. The Cmax ([3]; ip 100 mg/kg, saline) was 202 µg/mL, the Tmax ([3]; ip 100 mg/kg, saline) was 0.25 h and the half-life ([3]; ip 100 mg/kg, saline) was 2.55 h. The MRT inf ([3]; ip 100 mg/kg, saline) was 2.32 h, the AUC(0-inf) ([3]; po 100 mg/kg, saline) was 411 µg·h/mL and the AUC(0-t) ([3]; po 100 mg/kg, saline) was 410 µg·h/mL. The Cmax ([3]; po 100 mg/kg, saline) was 111 µg/mL, the Tmax ([3]; po 100 mg/kg, saline) was 2 h and the half-life ([3]; po 100 mg/kg, saline) was 2.78 h. The MRT inf ([3]; po 100 mg/kg, saline) was 2.58 h, the oral availability [3] was “orally available” and the AUCinf ([3]; ip 100 mg/kg, saline) was 612,428 h*ng/mL. It also gave an AUC_%Extrap_obs ([3]; ip 100 mg/kg) of 0.0362%, an AUClast/D ([3]; ip 100 mg/kg) of 6122 and an AUC_%Extrap_obs ([3]; po 100 mg/kg) of 0.0522%. For the same molecule, the AUClast/D ([3]; po 100 mg/kg) was 4104, the “clinical symptoms during the PK experiment” value ([3]; single dose 100 mg/kg ip or po) was “No abnormal clinical symptoms” and the “influence on the Bohr effect of red blood cells” value (mouse red blood cells [4]; 2 mM, change in acidity, OEC shift) was “will not offset the Bohr effect; also recorded: preserved the Bohr effect”. The “dose–response relationship of oxygen affinity of hemoglobin” value (mouse red blood cells [4]; different concentrations, oxygen dissociation curve) was “dose-dependently altered the oxygen affinity of hemoglobin; also recorded: exerts an allosteric effect on hemoglobin at a micromolar level”, the “cytotoxicity (summary statement)” value (HEK293 cells; HEK293 (normal) cells) was “no cytotoxicity” and the cytotoxicity (HEK293 cells; HEK293 cells, concentration of 5 mM) was “no cytotoxic effect”.
